Laboratory results: patent US5491155A, “Substituted thiadiazoles, compositions containing them and their use as antimicrobial and marine antifouling agents” (The Dow Chemical Company, priority 1994, dated 1996)

System: Penicillium chrysogenum
Test: MIC in malt yeast agar, Penicillium chrysogenum
Type: cell-based, Penicillium chrysogenum (ATCC 9480)
Conditions: Pc; malt yeast agar; 30° C.; 72 hours for fungi; read-out: Minimum Inhibitory Concentration (MIC)
Protocol: The minimum inhibitory concentration (MIC) for the compounds listed in Table I is determined for bacteria, using nutrient agar, and 7 yeast and fungi, using malt yeast agar. A one percent solution of the test compound is prepared in a mixture of acetone and water.
Malt yeast agar is prepared by adding 3 g yeast extract and 45 g malt agar per liter of deionized water. The specific agar is dispensed in 30 mL aliquots into 25×200 mm test tubes, capped and autoclaved for 15 minutes at 115° C.
The test tubes containing the agar are cooled in a water bath until the temperature of the agar is 48° C. Then, an appropriate amount of the one percent solution of the test compound is added (except in the controls where no compound is added) to the respective test tubes so that the final concentrations are 500, 250, 100, 50, 25, 10, 2.5, 1.0 and zero parts per million of the test compound in the agar, thus having a known concentration of test compound dispersed therein. The contents of the test tubes are then transferred to respective petri plates. After drying for 24 hours, the petri plates containing nutrient agar are inoculated with bacteria and those containing malt yeast agar are inoculated with yeast and fungi.
The inoculation with the yeast and fungi is accomplished as follows. Cultures of yeast and fungi are incubated for seven days on malt yeast agar at 30° C. These cultures are used to prepare suspensions by the following procedure. A suspension of each organism is prepared by adding 10 mL of sterile saline and 10 microliters of octylphenoxy polyethoxy ethanol to the agar slant of yeast or fungi. The sterile saline/octylphenoxy polyethoxy ethanol solution is then agitated with a sterile swab to suspend the microorganism grown on the slant. Each resulting suspension is diluted into sterile saline (1 part suspension: 9 parts sterile saline). Aliquots of these dilutions are placed in individual wells of Steer's Replicator and petri plates inoculated as previously described. The petri plates are incubated at 30° C. and read after 48 hours for yeast and 72 hours for fungi.
Table II lists the bacteria, yeast and fungi used in the MIC test described above along with their respective American Type Culture Collection (ATCC) identification numbers.
In Tables III and IV, the MIC values of the compounds described in Table I as compared to the MIC of a standard commercial preservative (with 1-(3-chloroalkyl)-3,5,7-triaza-1-azoniaadamantane chloride as the active agent and referred to in Tables III and IV as "STANDARD I") are set forth for the bacteria organisms and yeast/fungi organisms which are listed in Table II.

**Q.** `N#CSc1nsnc1SC#N` [Example 2, Bis(thiocyanato)-1,2,5-thiadiazole] was tested. Which MIC did it give?
**A.** Its MIC is less than 1 µg/mL.

**Q.** How did the MIC turn out when `N#CSCSc1nsnc1SCSC#N` [Example 4, Bis(thiomethylthiocyanato)-1,2,5-thiadiazole] was run?
**A.** The MIC was less than 2.5 µg/mL.
